Measurements published in ChEMBL document CHEMBL1151440, “Safety and pharmacokinetics of GSK364735, a human immunodeficiency virus type 1 integrase inhibitor, following single and repeated administration in healthy adult subjects” (Antimicrob Agents Chemother, 2007).

Assays:
[1] = Tmax in human at 400 mg administered with fat meal daily for 8 days measured on day 8; assay type: ADME, organism-based; details: in vivo
[2] = Apparent oral clearance in human at 200 mg administered with fat meal every 8 hrs for 8 days measured on day 1; assay type: ADME, organism-based; details: in vivo
[3] = Tmax in fasted human at 50 mg administered as single dose; assay type: ADME, organism-based; details: in vivo
Homo sapiens [4] = experiment: Toxicity in human assessed as headache at 200 mg administered every 12 hrs for 8 days; assay type: organism-based; details: in vivo
[5] = Cmax in human at 50 mg administered with fat meal every 12 hrs for 8 days measured on day 1; assay type: ADME, organism-based; design: dose 50 mg; details: in vivo
Homo sapiens [6] = experiment: Toxicity in human assessed as dizziness at 200 mg administered every 8 hrs for 8 days; assay type: organism-based; details: in vivo
[7] = AUC (0 to infinity) in fasted human at 200 mg administered as single dose; assay type: ADME, organism-based; design: dose 200 mg, time infinity; details: plasma
[8] = Cmax in human at 200 mg administered with fat meal every 12 hrs for 8 days measured on day 1; assay type: ADME, organism-based; design: dose 200 mg; details: in vivo
[9] = Terminal elimination half life in fasted human at 400 mg administered as single dose; assay type: ADME, organism-based; details: in vivo, read-out: beta t1/2 (converted)

Tmax [1]: 4 h
CL/F [2]: 567 mL/min
Tmax [3]: 1.5 h
Cmax [5]: 740 ng/mL
AUC(0-inf) [7]: 5500 ng·h/mL
Cmax [8]: 1500 ng/mL
half-life [9]: 6.6 h
SMILES: Cn1c(=O)c(C(=O)NCCO)c(O)c2ncc(Cc3ccc(F)cc3)cc21 [GSK-364735]
Activity (Homo sapiens [4]): 13%
Activity (Homo sapiens [6]): 13%
